Measured values: paper PMC8706783 (Pharmaceutics, 2021)

How the values were obtained:
CYP3A4 mRNA = system: CYP3A4 mRNA; design: method as in PMID 23965226; settings: 10 μM DPV, colorectal tissue from three human donors; cited from earlier work
CYP2B6 mRNA = system: CYP2B6 mRNA; design: method as in PMID 23965226; settings: 10 μM DPV, colorectal tissue from three human donors; cited from earlier work
HLM (Phase 2) = assay: Reaction phenotyping, HLM with UDPGA; settings: HLM (Phase 2)
[1] = system: primary human hepatocytes; assay: Cytotoxicity in CYP induction studies; format: cell-based; settings: 303 nM (100 ng/mL) in primary human hepatocytes
CYP2C8 = molecular target: T1, CYP2C8 (Homo sapiens, UniProt P10632); assay: Enzyme inhibition assay, CYP2C8; format: in vitro ADME
T1 construct: tissue Xenotech LLC; host or cells: human liver microsomes, mixed-gender 50 donor pool
T1 sequence (P10632 whole entry): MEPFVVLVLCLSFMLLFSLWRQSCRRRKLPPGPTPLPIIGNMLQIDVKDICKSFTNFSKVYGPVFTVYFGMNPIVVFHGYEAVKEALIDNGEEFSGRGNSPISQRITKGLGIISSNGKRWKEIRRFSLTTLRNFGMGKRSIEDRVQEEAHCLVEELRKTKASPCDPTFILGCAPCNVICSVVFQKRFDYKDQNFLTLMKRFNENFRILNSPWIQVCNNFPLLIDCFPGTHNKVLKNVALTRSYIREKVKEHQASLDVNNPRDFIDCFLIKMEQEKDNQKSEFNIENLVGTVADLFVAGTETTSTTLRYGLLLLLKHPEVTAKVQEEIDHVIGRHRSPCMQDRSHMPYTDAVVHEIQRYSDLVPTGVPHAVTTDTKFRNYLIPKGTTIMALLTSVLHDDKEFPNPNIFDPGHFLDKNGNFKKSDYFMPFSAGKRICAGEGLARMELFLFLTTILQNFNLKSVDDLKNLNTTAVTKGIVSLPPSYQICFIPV

UGT2B7 = molecular target: T2, UGT2B7 (Homo sapiens, UniProt P16662); assay: Enzyme inhibition assay, UGT2B7; format: in vitro ADME; design: from tissue; settings: HLM; UGT2B7 zidovudine glucuronidation
T2 sequence (P16662 24-529): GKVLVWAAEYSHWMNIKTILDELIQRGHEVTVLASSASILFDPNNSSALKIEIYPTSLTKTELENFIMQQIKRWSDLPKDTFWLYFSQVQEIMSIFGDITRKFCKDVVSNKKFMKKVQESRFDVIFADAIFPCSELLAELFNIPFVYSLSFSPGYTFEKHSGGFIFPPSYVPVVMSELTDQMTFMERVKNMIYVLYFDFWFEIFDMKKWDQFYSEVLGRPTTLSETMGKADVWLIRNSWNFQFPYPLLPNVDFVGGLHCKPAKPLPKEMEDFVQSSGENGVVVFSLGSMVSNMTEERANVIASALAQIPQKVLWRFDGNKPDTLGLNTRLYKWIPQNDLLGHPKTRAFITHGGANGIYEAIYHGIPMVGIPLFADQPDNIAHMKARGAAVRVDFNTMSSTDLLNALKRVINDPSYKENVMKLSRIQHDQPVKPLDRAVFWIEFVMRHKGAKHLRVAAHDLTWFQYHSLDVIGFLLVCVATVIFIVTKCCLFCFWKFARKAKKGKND

SMILES: Cc1cc(C)c(Nc2ccnc(Nc3ccc(C#N)cc3)n2)c(C)c1 [DPV, Dapivirine]
- CYP3A4 mRNA change (CYP3A4 mRNA): induction in two donors
- CYP2B6 mRNA change (CYP2B6 mRNA): inhibition in one donor
- % DPV Remaining at 60 min without MIC (HLM (Phase 2); 10 μM DPV): 97.15%
- % DPV Remaining at 60 min with MIC (HLM (Phase 2); 10 μM DPV and 30 μM MIC): 95.59%
- cytotoxicity [1]: no cytotoxicity observed
- IC50 (CYP2C8): 1.41 µM
- IC50 (UGT2B7): 17.2 µM
